Measured values reported in US8410287B2 (McNeil-PPC, Inc., priority 2010, dated 2013).
Each block holds one compound with its values, some of them ahead of it.

Tests used:
[1] = stability toward air: neutralization of the salt by CO2 and water to neutral Cel (Cel-III); type: physicochemical
Excerpt: The behavior was first observed when using compressed air instead of nitrogen in the dynamic vapor sorption experiment, but it was also clear in samples stored open in controlled humidity chambers. The neutralization was minimized to get clean PXRD patterns by including small vials of concentrated NaOH solution within the closed humidity chambers to remove CO2 from the air. […] Throughout the conversion, both Cel-III and the sodium salt are clearly observed by PXRD with Cel-III growing slowly over time.

[2] = storage in controlled humidity chambers monitored by PXRD (physical form stability); type: physicochemical
Excerpt: Indeed, understanding the behavior of the salt form before the single crystal structure was solved was challenging in that the powder patterns seemed to change almost daily, even when powders were equilibrated in humidity chambers prior to measurement. […] Consistent powder patterns were obtained by two distinct methods. In the first method, powder was filled into 0.5 mm capillary tubes, equilibrated in controlled humidity chambers for 1 week, sealed with silicone grease immediately upon removal from the humidity chambers, and measured immediately with a transmission powder X-ray diffractometer. In the second, a sample was monitored by a reflectance mode powder X-ray diffractometer fitted with a controlled humidity stage. The two methods were complimentary. The capillary method provided high resolution patterns without preferred orientation effects. However, the humidity control was coarse and was limited to conditions that could be achieved with standard saturated salt solutions.
The rate of conversion to Cel-NaPG(H2O)3 is very slow at 18% RH and increases to the point where conversion takes less than one day at 54% RH or higher.

[3] = Dynamic Vapor Sorption (DVS) moisture sorption analysis; type: physicochemical
Description: Moisture sorption analysis was performed using a Dynamic Vapor Sorption apparatus (Surface Measurement Systems, Monarch Beach, Calif.). Each sample was placed in a clean glass crucible and equilibrated in the apparatus at a specified RH level. Varying the flow rates of dry nitrogen gas and saturated wet nitrogen gas streams controlled RH; the total combined flow rate was kept constant at 200 standard […] per minute. After initial equilibration, RH was varied and change in mass was recorded over time as an indication of moisture sorption. Mass equilibration at each humidity level was determined as a change in mass less than ±2×10^−5 grams over a time interval of 1 minute (dm/dt of 0.002% min). After the assay, the change in mass was mathematically converted to water molar equivalents per dry compound molar equivalent.
The dynamic vapor sorption profiles were measured starting with Cel-NaPG at 0% RH, and for Cel-NaPG(H2O)3 beginning at 20% RH to avoid dehydrating it prior to the first absorption cycle. The profiles are shown in FIG. 12 alongside PXRD patterns for samples of Cel-NaPG stored in controlled humidity chambers for 1-2 days.

TGA = type: physicochemical
[4] = 1H NMR determination of Cel:PG ratio after exposure to 0% RH and 40% RH in the DVS; type: physicochemical
Description: ^1H NMR measurements were conducted using a Varian 400 MHz spectrometer with averaging of 128 scans. Samples were prepared as 10 mg/ml solutions of Cel in CDCl3.
Increased lability and loss of PG during the transition from anhydrous to trihydrate was believed to be the most likely explanation for the weight loss. ^1H NMR was used to determine whether the PG solvate is lost continuously throughout the humidity cycle or only during change in the hydration state. Cel-NaPG and Cel-NaPG(H2O)3 were exposed to 0% RH and 40% RH in the DVS and then dissolved in methanol-d4 for NMR analysis. The Cel:PG ratio was stable at 1/1 for Cel-NaPG(H2O)3 after treatment for either four hours at 40% RH or 18 hours at 0% RH. […] Since the Cel-NaPG(H2O)3 has a wide range of physical stability, conversion from the trihydrate to the anhydrous and then back to the trihydrate should be a rare event. In a closed system such as a packaged tablet, PG should not be lost as easily as it is in the dynamic environment of the DVS where gases continuously flow over the sample to carry away any volatile components.

[5] = cited from earlier work
physchem = conditions: aqueous sodium hydroxide solution, pH 12, aqueous buffer

- physical stability in a sealed vial ([1]; sealed vial): physically stable
Compound: Cc1ccc(-c2cc(C(F)(F)F)nn2-c2ccc(S(N)(=O)=O)cc2)cc1 [Cel-Na(H2O)x]

- conversion to Cel-NaPG (dehydration) ([2]; 4 days of storage over the 18% RH salt bath): no conversion to Cel-NaPG
- conversion to neutral Cel ([1]; after 4 days at 45 66% RH): no conversion was observed
- reversible weight gain ([3]; between 10 and 70% RH at 25° C.): 1.2 % weight
- loss of dry weight after a single humidity cycle ([3]; started at 20% RH, single humidity cycle): no loss was seen
Compound: CC(O)CO.Cc1ccc(-c2cc(C(F)(F)F)nn2-c2ccc(S([NH-])(=O)=O)cc2)cc1.O.O.O.[Na+] [Cel-NaPG(H2O)3, propylene glycol solvate of celecoxib sodium trihydrate]
- reaction with CO2 and water in the air [1]: resistant to reaction with CO2 and water in the air

- temperature until which PG is retained (TGA) (TGA; under a flow of nitrogen): approximately 80 °C
- water gained (TGA) (TGA; within 1 day, stored in a 38% RH chamber): about 2 equiv
- PG lost ([4]; over four hours at 40% RH): 8.2%
- stability of PG content ([4]; stream of dry nitrogen for 18 hours (0% RH)): remaining stable
- time for conversion to Cel-NaPG(H2O)3 ([2]; 54% RH or higher): less than one
- additional weight loss after going through the entire DVS profile ([3]; 25° C., after desorption): 2 % weight
- weight gain during adsorption ([3]; DVS profile started at 0% RH, 25° C.): ~14 % weight
Compound: CC(O)CO.Cc1ccc(-c2cc(C(F)(F)F)nn2-c2ccc(S([NH-])(=O)=O)cc2)cc1.[Na+] [Cel-NaPG]

- solubility (physchem): ≥ 380 mg/mL
Compound: Cc1ccc(-c2cc(C(F)(F)F)nn2-c2ccc(S(N)(=O)=O)cc2)cc1 [celecoxib]
- aqueous solubility of celecoxib at physiological pH [5]: < 0.5 μg/ml
